Earlier results in patent US20240209370A1, “METHODS OF MODULATING ALK” (SOCIETE DES PRODUITS NESTLE S.A., priority 2017, published 2024).

Target: ALK (Homo sapiens, UniProt Q9UM73)
Sequence (Q9UM73 19-1620): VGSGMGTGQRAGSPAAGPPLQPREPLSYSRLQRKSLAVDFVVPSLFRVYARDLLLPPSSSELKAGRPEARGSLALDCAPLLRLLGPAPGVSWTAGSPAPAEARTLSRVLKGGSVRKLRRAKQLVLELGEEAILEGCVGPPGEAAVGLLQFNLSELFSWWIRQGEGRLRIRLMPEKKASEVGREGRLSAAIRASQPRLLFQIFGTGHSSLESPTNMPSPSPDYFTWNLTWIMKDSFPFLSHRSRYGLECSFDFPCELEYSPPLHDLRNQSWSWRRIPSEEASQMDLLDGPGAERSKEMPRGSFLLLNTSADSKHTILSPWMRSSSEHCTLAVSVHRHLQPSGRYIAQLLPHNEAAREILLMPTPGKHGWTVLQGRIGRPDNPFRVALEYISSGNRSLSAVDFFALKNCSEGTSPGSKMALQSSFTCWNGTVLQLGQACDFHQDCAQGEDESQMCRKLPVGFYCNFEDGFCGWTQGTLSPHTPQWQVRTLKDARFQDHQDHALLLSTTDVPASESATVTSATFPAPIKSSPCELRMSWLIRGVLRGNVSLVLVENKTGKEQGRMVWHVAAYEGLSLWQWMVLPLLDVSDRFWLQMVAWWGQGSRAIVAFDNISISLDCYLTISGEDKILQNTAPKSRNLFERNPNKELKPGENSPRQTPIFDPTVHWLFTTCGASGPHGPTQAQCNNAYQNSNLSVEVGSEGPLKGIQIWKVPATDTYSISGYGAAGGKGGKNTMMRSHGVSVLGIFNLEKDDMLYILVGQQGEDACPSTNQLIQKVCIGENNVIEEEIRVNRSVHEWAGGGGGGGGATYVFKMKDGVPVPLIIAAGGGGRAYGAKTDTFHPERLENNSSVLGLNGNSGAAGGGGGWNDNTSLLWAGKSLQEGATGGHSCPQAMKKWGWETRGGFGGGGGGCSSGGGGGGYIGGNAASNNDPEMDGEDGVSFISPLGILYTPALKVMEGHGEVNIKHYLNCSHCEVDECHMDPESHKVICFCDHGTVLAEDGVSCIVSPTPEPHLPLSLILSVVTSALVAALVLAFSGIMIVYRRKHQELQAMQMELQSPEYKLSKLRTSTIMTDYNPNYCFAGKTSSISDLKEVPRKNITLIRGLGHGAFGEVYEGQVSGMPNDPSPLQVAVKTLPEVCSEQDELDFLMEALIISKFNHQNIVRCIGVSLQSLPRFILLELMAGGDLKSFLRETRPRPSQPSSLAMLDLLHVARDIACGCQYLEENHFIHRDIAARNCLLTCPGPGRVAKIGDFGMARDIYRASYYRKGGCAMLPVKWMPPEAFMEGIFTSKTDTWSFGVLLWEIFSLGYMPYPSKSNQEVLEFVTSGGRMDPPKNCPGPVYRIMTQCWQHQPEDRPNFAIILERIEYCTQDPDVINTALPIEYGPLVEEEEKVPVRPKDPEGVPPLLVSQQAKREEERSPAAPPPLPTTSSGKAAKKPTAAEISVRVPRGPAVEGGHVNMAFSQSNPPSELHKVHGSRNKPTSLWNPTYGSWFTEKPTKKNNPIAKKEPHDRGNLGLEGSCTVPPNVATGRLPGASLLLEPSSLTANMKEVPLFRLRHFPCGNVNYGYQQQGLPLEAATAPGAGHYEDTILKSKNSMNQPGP
Conditions: effect on ALK activity or expression as listed from ctdbase, Medline or cited patents
In the case of `Cc1cc(O)c2c(c1)C(=O)c1cc(O)cc(O)c1C2=O` [emodin], the “Interaction Actions” value is listed as “inhibit”. In the case of `CS(=O)(=O)CCNCc1ccc(-c2ccc3ncnc(Nc4ccc(OCc5cccc(F)c5)c(Cl)c4)c3c2)o1` [lapatinib], the “Interaction Actions” value is given as “inhibit”. In the case of `COc1cc2c(Oc3ccc(NC(=O)C4(C(=O)Nc5ccc(F)cc5)CC4)cc3F)ccnc2cc1OCCCN1CCOCC1` [foretinib], the “Interaction Actions” value is listed as “inhibit”. For `CC1=C(/C=C/C(C)=C/C=C/C(C)=C/C(=O)O)C(C)(C)CCC1` [Tretinoin], the “Interaction Actions” value is given as “decreases expression”. In the case of `Cc1cc(Nc2ncc(Cl)c(Nc3ccccc3S(=O)(=O)C(C)C)n2)c(OC(C)C)cc1C1CCNCC1` [ceritinib], the “Interaction Actions” value is given as “inhibit”. In the case of `c1cncnc1` [pyrimidine], the “Interaction Actions” value is given as “inhibit”. For `C[C@H]1c2cccc(O)c2C(O)=C2C(=O)[C@]3(O)C(O)=C(C(N)=O)C(=O)[C@@H](N(C)C)[C@@H]3[C@@H](O)[C@@H]21` [vibramycin], the “Interaction Actions” value is given as “inhibit”. In the case of `CC(=O)N[C@@H](CS)C(=O)O` [Acetylcysteine], the “Interaction Actions” value is listed as “affects activity”. For `C[C@H](Cc1ccc(O)c(O)c1)[C@@H](C)Cc1ccc(O)c(O)c1` [Masoprocol], the “Interaction Actions” value is listed as “decreases activity”. In the case of `COc1cc2nccc(Oc3ccc(NC(=O)Nc4cc(C)on4)c(Cl)c3)c2cc1OC` [tivozanib], the “Interaction Actions” value is listed as “inhibit”. In the case of heparin, the “Interaction Actions” value is listed as “terminate”. In the case of `CO[C@H]1[C@@H](OC)C[C@H](C)[C@@H](OC)C2=CC(=O)C=C(NC(=O)/C(C)=C/C=C\[C@H](OC)[C@@H](OC(N)=O)/C(C)=C/[C@@H]1C)C2=O` [herbimycin], the “Interaction Actions” value is given as “inhibit”. In the case of `O=S(=O)(O)OC[C@H]1O[C@@](COS(=O)(=O)O)(O[C@H]2O[C@H](COS(=O)(=O)O)[C@@H](OS(=O)(=O)O)[C@H](OS(=O)(=O)O)[C@H]2OS(=O)(=O)O)[C@@H](OS(=O)(=O)O)[C@@H]1OS(=O)(=O)O` [sucrose octasulfate], the “Interaction Actions” value is given as “inhibit”. For `C[C@]12CCC(=O)C=C1CC[C@@H]1[C@@H]2[C@@H](O)C[C@@]2(C)[C@H]1CC[C@]2(O)C(=O)CO` [hydrocortisone], the “Interaction Actions” value is listed as “suppress”. In the case of `CO[C@H]1C[C@@H]2CC[C@@H](C)[C@@](O)(O2)C(=O)C(=O)N2CCCC[C@H]2C(=O)O[C@H]([C@H](C)C[C@@H]2CC[C@@H](OCCO)[C@H](OC)C2)CC(=O)[C@H](C)/C=C(\C)[C@@H](O)[C@@H](OC)C(=O)[C@H](C)C[C@H](C)/C=C/C=C/C=C/1C` [everolimus], the “Interaction Actions” value is given as “inhibit”.
